Measured values from the pKa sets of Baltruschat and Czodrowski (2020).

conditions: acidic group

Point of comparison: `O=C([O-])C[NH+](CC(=O)[O-])Cc1cc(Cl)cc(C[NH+](CC(=O)[O-])CC(=O)[O-])c1O`, pKa 6.27. Against it:
- Fc1cccc(NC(=S)c2ccccc2)c1 — higher, 10.3
- CCC1(CC)OC(=O)NC1=O — lower, 5.7
- N#Cc1c(-c2nc3cc(Cl)ccc3o2)c(=O)oc2cc(O)ccc12 — lower, 6
- O=C(O)C1CCCCn2nnnc21 (stereo not drawn) — lower, 3.4
- Cc1n[nH]c(O)c1-c1ccccc1 — higher, 11.4
- Cc1nccc2c1[nH]c1cc(O)ccc12 — higher, 9.47
- Nc1cccc2c(O)cccc12 — higher, 10.3
- Sc1nc2[nH]cnc2c[nH+]1 — lower, 0.5
- O=C(O)CC1CCCCO1 (stereo not drawn) — lower, 4.39
- O=C(O)C#CC[NH+]1CCOCC1 — lower, 1.79
- Cc1ccc([C@H]2C[C@@H]2C(=O)O)cc1 — lower, 4.6
- Oc1nc2cc3ccccc3cc2[nH]1 — higher, 11.6
- Cc1ccc(C(=S)Nc2ccc(Cl)cc2)cc1 — higher, 10.8
- O=C([O-])C1(C(=O)O)CC1 — higher, 7.31
- Oc1ccc(/C=N/c2ncc3nc[nH]c3n2)cc1 — higher, 8.62
- CS(=O)(=O)c1ccc(NS(=O)(=O)C(F)(F)F)cc1 — lower, 2.84
- O=C(O)CCc1cccs1 — lower, 4.34
- O=C(NO)c1ccncc1 — higher, 7.82
- CCCCCCCCCCCCCC(=O)N(O)c1ccccc1 — higher, 9.05
- CC([NH3+])c1nnn[nH]1 (stereo not drawn) — lower, 2.63
- O=S(=O)(Nc1ccccc1)C(F)(F)F — lower, 4.85
- CC(C)(/C=C/C(=O)[O-])c1ccccc1O — higher, 10.7
- CNC[C@H](O)c1cccc(O)c1 — higher, 9.84
- CCOC(=O)c1c(C)nc(C)c(C(=O)OCC)c1-c1cccc(NS(=O)(=O)c2ccc(N)cc2)c1 — higher, 9.7
- O=S(O)Cc1ccccc1 — lower, 1.86
- Nc1c2c(ncn2Cc2ccccc2)nc[n+]1[O-] — higher, 11
- Cc1ccc(S(=O)(=O)NC(=O)OCc2ccc([N+](=O)[O-])cc2)cc1 — lower, 3.8
- CCCC1(Br)C(=O)NC(=O)NC1=O — higher, 6.6
- COc1nc([N+](=O)[O-])n[nH]1 — lower, 5.35
- Cc1ccc(C(N)=S)cc1 — higher, 12.8
- Oc1cccc2nccnc12 — higher, 8.8
- O=C1[N-]C(=O)/C(=N/O)C(=O)N1 — higher, 10.1
- Nc1nnc(S(N)(=O)=O)s1 — higher, 7.69
- O=C(O)C(F)c1ccccc1 (stereo not drawn) — lower, 2.45
- Oc1c(Cl)cc(Cl)cc1C[NH+]1CCOCC1 — lower, 5.67
- O=C1OC2C3CC4C2C4(C(=O)O)C13Br (stereo not drawn) — lower, 3.5
- CCCCS — higher, 10.8
- NCCc1ccc(O)cc1 — higher, 10.8
- CCCOC(=O)c1ccc(O)cc1 — higher, 8.3
- N#Cc1cccc(C(=O)O)c1 — lower, 3.6
- CC(C)(C)c1ccc(SCC(=O)O)cc1 — lower, 3.76
- O=[N+]([O-])c1cc(Cl)c(O)c(Cl)c1 — lower, 3.7
- O=C(O)c1ccc([N+](=O)[O-])o1 — lower, 2.06
- CC(=O)ONc1cc(=O)n(C)c(=O)n1C — higher, 7.01
- CC(=O)S — lower, 3.71
- C#CCC(=O)O — lower, 3.31
- CCO/C([O-])=N/c1ncnc2nc[nH]c12 — higher, 12.2
- SCC[NH2+]Cc1ccccc1 — higher, 7.86
- O=C(/C(=N/O)c1ccccc1)c1ccccc1 — higher, 8.8
- OCCC[n+]1cc(Br)c2ccccc2c1 — higher, 12
- CC1(C)S[C@H]2C(C(=O)[O-])[NH+]=C(CCCC([NH3+])C(=O)[O-])N2C1C(=O)O (stereo partly drawn) — lower, 3.1
- Cc1cc(C)c2cccc(O)c2n1 — higher, 10.6
- Sc1cc[nH+]cc1 — lower, 1.43
- O=S1(=O)N=CNc2ncccc21 — higher, 7.03
- O=C(NO)[C@@H]1[C@H](C(=O)NO)[C@@H]2CC[C@H]1O2 — higher, 9.3
- O=[Se](O)c1ccc(-c2ccccc2)cc1 — lower, 4.53
- Oc1ccc(Cl)c2ccccc12 — higher, 8.64
- O=C(O)C[C@]1(O)C[C@@H]2CC[C@H]1C2 — lower, 4.46
- O=CNO — higher, 8.77
- C[n+]1nc(O)ccc1[O-] — lower, 5.65
- CO[n+]1ccc(O)cc1 — lower, 2.57
- Oc1oc(-c2ccccc2)nc1Cc1ccccc1 — higher, 8.72
- C=CCC1(CC=C)SC(=O)NC1=O — within 0.2 log units, 6.1
- Cc1nnc([N-]S(=O)(=O)c2ccc(O)cc2)s1 — higher, 8.81
- Oc1[nH+]cnc2ccccc12 — lower, 2.12
- Cc1cccc(Cl)c1C(=O)O — lower, 2.59
- c1cn[nH]c1 — higher, 14.2
- CC(C)(C)c1cc(/C=C/Cl)cc(C(C)(C)C)c1O — higher, 11.8
- CC(=O)C(C)C(=O)c1ccccc1 (stereo not drawn) — higher, 11.1
- Sc1cccnc1 — higher, 7.01
- O=C(O)[C@@H]1CC[C@H](C(=O)O)C1 — lower, 4.24
- CC(C)CCC(=O)O — lower, 4.84
- Cc1ncc(C(=O)O)s1 — lower, 3.26
- CCOC(=O)[C@H]1CC(=O)N[C@@H]1C(=O)O — lower, 3.5
- CCCc1c(C)[nH]n(C2CC[NH+](C)CC2)c1=O — higher, 7.18
- O=C(O)C[NH+](CCNS(=O)(=O)c1ccc(CCBr)cc1)CC(=O)O — lower, 2.15
- NC(=O)C1CN2CCC1CC2 (stereo not drawn) — higher, 9.74
- O=c1cc(CO)occ1O — higher, 7.82
- c1ncc2[nH]nnc2n1 — lower, 4.88
- NC1=[NH+][C@H](C(=O)O)[C@@H]([C@H](O)C[NH3+])N1 — lower, 2.4
- NC(=O)CC(=O)O — lower, 3.61
- O=C(O)/C=C/CCl — lower, 4.14
- Oc1ccc2[nH]ncc2c1 — higher, 10.1

same assay, conditions: basic group

Point of comparison: `Nc1ccc2c(c1O)Cc1ccccc1-2`, pKa 4.82. Against it:
- Oc1ccccc1CN1CCCNCCCNCCC1 — higher, 9.87
- CC1(C)[C@@H](N)[C@@H]1N — higher, 8.96
- Cc1ccc(C)nn1 — lower, 3.99
